In patent publication US11236105B2, “Bicyclic compounds and methods of use” (BioTheryX, Inc., priority 2017, dated 2022):

Test system: TNF-α
Experiment: Cell-Based TNFα Inhibition Assay (PBMCs induced with LPS, Meso Scale)
Conditions: PBMCs pretreated 1 hr, induced with LPS 100 ng/mL 18-24 hrs, supernatant TNF-α; for inhibition at 0.1 µM / inhibition at 1 µM: PBMC; for inhibition at 0.1 µM / % TNFα Inhibition (0.1 μM): 0.1 μM compound; for inhibition at 1 µM / % TNFα Inhibition (1 μM): 1 μM compound
Protocol: Cell-Based TNFα Inhibition Assay
PBMCs induced with LPS (lipopolysaccharide): Frozen […] blood mononuclear cells (PBMCs) are purchased from AllCells. Cells are quick thawed, washed once with Roswell Park Memorial Institute medium (RPMI)-1640/10% FBS/1% Penicillin/1% Streptomycin and plated in 96 well plates at 200,000 cells per well. Cells are pretreated with DMSO only or the indicated compounds for 1 hr and then induced with […] for 18-24 hrs. The supernatant is analyzed for TNF-α using Meso Scale assay according to manufacturer's protocol. The negative control wells are treated with DMSO. Compound activity is measured as a percentage of the DMSO control.

| SMILES | inhibition at 0.1 µM | inhibition at 1 µM | % TNFα Inhibition (0.1 μM) | % TNFα Inhibition (1 μM) |
| --- | --- | --- | --- | --- |
| CCOc1cc([C@@H](CS(C)(=O)=O)N2C(=O)c3csc(NC(C)=O)c3C2=O)ccc1OC [Compound 1, (S)—N-(5-(1-(3-ethoxy-4-methoxyphenyl)-2-(methylsulfonyl)ethyl)-4,6-dioxo-5,6-dihydro-4H-thieno[3,4-c]pyrrol-1-yl)acetamide] | 40 to 60% | > 60% |  |  |
| CCOc1cc([C@@H](CS(C)(=O)=O)N2C(=O)c3csc(NC(=O)C(C)(C)C)c3C2=O)ccc1OC [Compound 2, (S)—N-(5-(1-(3-ethoxy-4-methoxyphenyl)-2-(methylsulfonyl)ethyl)-4,6-dioxo-5,6-dihydro-4H-thieno[3,4-c]pyrrol-1-yl)pivalamide] | < 20% | > 60% |  |  |
| CCOc1cc([C@@H](CS(C)(=O)=O)N2C(=O)c3csc(NC(=O)COC)c3C2=O)ccc1OC [Compound 3, (S)—N-(5-(1-(3-ethoxy-4-methoxyphenyl)-2-(methylsulfonyl)ethyl)-4,6-dioxo-5,6-dihydro-4H-thieno[3,4-c]pyrrol-1-yl)-2-methoxyacetamide] | 40 to 60% | > 60% |  |  |
| CCOc1cc([C@@H](CS(C)(=O)=O)N2C(=O)c3csc(N(C(=O)C4CC4)C(=O)C4CC4)c3C2=O)ccc1OC [Compound 4] | < 20% | 40 to 60% |  |  |
| CCOc1cc([C@@H](CS(C)(=O)=O)N2C(=O)c3csc(NC(=O)C(C)C(F)(F)F)c3C2=O)ccc1OC (stereo partly drawn) [Compound 5, N-(5-((S)-1-(3-ethoxy-4-methoxyphenyl)-2-(methylsulfonyl)ethyl)-4,6-dioxo-5,6-dihydro-4H-thieno[3,4-c]pyrrol-1-yl)-3,3,3-trifluoro-2-methylpropanamide] | 20 to 40% | > 60% |  |  |
| CCOc1cc([C@@H](CS(C)(=O)=O)N2C(=O)c3csc(NC(=O)C(CC)CC)c3C2=O)ccc1OC [Compound 6] | 40 to 60% | > 60% |  |  |
| CCOc1cc([C@@H](CS(C)(=O)=O)N2C(=O)c3csc(NC(=O)C(F)(F)F)c3C2=O)ccc1OC [Compound 7, (S)—N-(5-(1-(3-ethoxy-4-methoxyphenyl)-2-(methylsulfonyl)ethyl)-4,6-dioxo-5,6-dihydro-4H-thieno[3,4-c]pyrrol-1-yl)-2,2,2-trifluoroacetamide] | < 20% | < 20% |  |  |
| CCOc1cc([C@@H](CS(C)(=O)=O)N2C(=O)c3csc(NC(=O)C4CC4)c3C2=O)ccc1OC [Compound 8, (S)—N-(5-(1-(3-ethoxy-4-methoxyphenyl)-2-(methylsulfonyl)ethyl)-4,6-dioxo-5,6-dihydro-4H-thieno[3,4-c]pyrrol-1-yl)cyclopropanecarboxamide] | < 20% | > 60% |  |  |
| CCOc1cc([C@@H](CS(C)(=O)=O)N2C(=O)c3scc(NC(=O)C(F)(F)F)c3C2=O)ccc1OC [Compound 9, (S)—N-(5-(1-(3-ethoxy-4-methoxyphenyl)-2-(methylsulfonyl)ethyl)-4,6-dioxo-5,6-dihydro-4H-thieno[2,3-c]pyrrol-3-yl)-2,2,2-trifluoroacetamide] | < 20% | 40 to 60% |  |  |
| CCOc1cc([C@@H](CS(C)(=O)=O)N2C(=O)c3scc(NC(=O)COC)c3C2=O)ccc1OC [Compound 10, (S)—N-(5-(1-(3-ethoxy-4-methoxyphenyl)-2-(methylsulfonyl)ethyl)-4,6-dioxo-5,6-dihydro-4H-thieno[2,3-c]pyrrol-3-yl)-2-methoxyacetamide] | < 20% | 40 to 60% |  |  |
| CCOc1cc([C@@H](CS(C)(=O)=O)N2C(=O)c3scc(NC(=O)C4CC4)c3C2=O)ccc1OC [Compound 11, (S)—N-(5-(1-(3-ethoxy-4-methoxyphenyl)-2-(methylsulfonyl)ethyl)-4,6-dioxo-5,6-dihydro-4H-thieno[2,3-c]pyrrol-3-yl)cyclopropanecarboxamide] | < 20% | 20 to 40% |  |  |
| CC(=O)Nc1scc2c1C(=O)N([C@H](CS(C)(=O)=O)c1ccc3c(c1)OCO3)C2=O [Compound 12, N-(5-(1-(benzo[d][1,3]dioxol-5-yl)-2-(methylsulfonyl)ethyl)-4,6-dioxo-5,6-dihydro-4H-thieno[3,4-c]pyrrol-1-yl)acetamide] | < 20% | < 20% |  |  |
| CS(=O)(=O)C[C@H](c1ccc2c(c1)OCO2)N1C(=O)c2csc(NC(=O)C3CC3)c2C1=O [Compound 13, N-(5-(1-(benzo[d][1,3]dioxol-5-yl)-2-(methylsulfonyl)ethyl)-4,6-dioxo-5,6-dihydro-4H-thieno[3,4-c]pyrrol-1-yl)cyclopropane Carboxamide] | < 20% | < 20% |  |  |
| CC(=O)Nc1scc2c1C(=O)N([C@H](CS(C)(=O)=O)c1ccc3c(c1)OCCO3)C2=O [Compound 14, N-(5-(1-(2,3-dihydrobenzo[b][1,4]dioxin-6-yl)-2-(methylsulfonyl)ethyl)-4,6-dioxo-5,6-dihydro-4H-thieno[3,4-c]pyrrol-1-yl) acetamide] | < 20% | < 20% |  |  |
| CCOc1cc([C@@H](CS(=O)(=O)N(C)C)N2C(=O)c3csc(NC(C)=O)c3C2=O)ccc1OC [Compound 15, (S)—N-(5-(2-(N,N-dimethylsulfamoyl)-1-(3-ethoxy-4-methoxyphenyl)ethyl)-4,6-dioxo-5,6-dihydro-4H-thieno[3,4-c]pyrrol-1-yl)acetamide] | < 20% | < 20% |  |  |
| CS(=O)(=O)C[C@H](c1ccc2c(c1)OCO2)N1C(=O)c2csc(NC(=O)C(F)(F)F)c2C1=O [Compound 16, N-(5-(1-(benzo[d][1,3]dioxol-5-yl)-2-(methylsulfonyl)ethyl)-4,6-dioxo-5,6-dihydro-4H-thieno[3,4-c]pyrrol-1-yl)-2,2,2-trifluoro Acetamide] | < 20% | < 20% |  |  |
| CS(=O)(=O)C[C@@H](c1ccc2c(c1)OCO2)N1C(=O)c2csc(NC(=O)C(F)(F)F)c2C1=O [Compound 17, N-(5-(1-(benzo[d][1,3]dioxol-5-yl)-2-(methylsulfonyl)ethyl)-4,6-dioxo-5,6-dihydro-4H-thieno[3,4-c]pyrrol-1-yl)-2,2,2-trifluoro Acetamide] | < 20% | < 20% |  |  |
| CS(=O)(=O)C[C@H](c1ccc2c(c1)OCO2)N1C(=O)c2scc(NC(=O)C(F)(F)F)c2C1=O [Compound 21, N-(5-(1-(benzo[d][1,3]dioxol-5-yl)-2-(methylsulfonyl)ethyl)-4,6-dioxo-5,6-dihydro-4H-thieno[2,3-c]pyrrol-3-yl)-2,2,2-trifluoroacetamide] | < 20% | < 20% |  |  |
| CS(=O)(=O)C[C@H](c1ccc2c(c1)OCO2)N1C(=O)c2scc(NC(=O)C(F)(F)F)c2C1=O [Compound 22, N-(5-(1-(benzo[d][1,3]dioxol-5-yl)-2-(methylsulfonyl)ethyl)-4,6-dioxo-5,6-dihydro-4H-thieno[2,3-c]pyrrol-3-yl)-2,2,2-trifluoroacetamide] |  |  | C (C = a single percent inhibition value ≤40% and >20%) | C (C = a single percent inhibition value ≤40% and >20%) |
| CC(=O)Nc1csc2c1C(=O)N([C@H](CS(C)(=O)=O)c1ccc3c(c1)OCO3)C2=O [Compound 23, N-(5-(1-(benzo[d][1,3]dioxol-5-yl)-2-(methylsulfonyl)ethyl)-4,6-dioxo-5,6-dihydro-4H-thieno[2,3-c]pyrrol-3-yl)acetamide] | 20 to 40% | 40 to 60% |  |  |
| CC(=O)Nc1csc2c1C(=O)N([C@H](CS(C)(=O)=O)c1ccc3c(c1)OCO3)C2=O [Compound 24, N-(5-(1-(benzo[d][1,3]dioxol-5-yl)-2-(methylsulfonyl)ethyl)-4,6-dioxo-5,6-dihydro-4H-thieno[2,3-c]pyrrol-3-yl)acetamide] |  |  | D (D = a single percent inhibition value <20%) | D (D = a single percent inhibition value <20%) |
| COCC(=O)Nc1csc2c1C(=O)N([C@H](CS(C)(=O)=O)c1ccc3c(c1)OCO3)C2=O [Compound 25, N-(5-(1-(benzo[d][1,3]dioxol-5-yl)-2-(methylsulfonyl)ethyl)-4,6-dioxo-5,6-dihydro-4H-thieno[2,3-c]pyrrol-3-yl)-2-methoxy acetamide] | < 20% | 20 to 40% |  |  |
| COCC(=O)Nc1csc2c1C(=O)N([C@@H](CS(C)(=O)=O)c1ccc3c(c1)OCO3)C2=O [Compound 26, N-(5-(1-(benzo[d][1,3]dioxol-5-yl)-2-(methylsulfonyl)ethyl)-4,6-dioxo-5,6-dihydro-4H-thieno[2,3-c]pyrrol-3-yl)-2-methoxy acetamide] | < 20% | < 20% |  |  |
| CC(=O)Nc1scc2c1C(=O)N([C@H](CS(=O)(=O)N(C)C)c1ccc3c(c1)OCO3)C2=O [Compound 27, N-(5-(1-(benzo[d][1,3]dioxol-5-yl)-2-(N,N-dimethylsulfamoyl)ethyl)-4,6-dioxo-5,6-dihydro-4H-thieno[3,4-c]pyrrol-1-yl)acetamide] | < 20% | < 20% |  |  |
| CCOc1cc([C@H](CS(=O)(=O)N(C)C)N2C(=O)c3csc(NC(C)=O)c3C2=O)ccc1OC [Compound 29, (R)—N-(5-(2-(N,N-dimethylsulfamoyl)-1-(3-ethoxy-4-methoxyphenyl)ethyl)-4,6-dioxo-5,6-dihydro-4H-thieno[3,4-c]pyrrol-1-yl)acetamide] | < 20% | < 20% |  |  |
